Data as given in US9193983B2, “Assays for mutagenesis detection” (The Regents of the University of California, priority 2007, dated 2015).
Read-outs that look alike come from different tables or passages of the source. Numbered stars: 1 amine (or outer) side, 2 acyl side, 3 side chain; on linkers, the order of the positions; unused ones are H or OH. Bridge positions count the residues as written; N and C are the ends. Square brackets hold non-standard residues; d marks the D form. Peptide text beside a SMILES is read from it. I, II: the chains in the order shown. Actinocin(9to1) = Cc1c2oc3c(C)ccc(C(=O)[*:1])c3nc-2c(C(=O)[*:2])c(N)c1=O; NMeV = CN[C@H](C(=O)O)C(C)C; Sar = CNCC(=O)O

Legend:
in vitro = conditions: Saccharomyces cerevisiae; for viability: Cytotoxicity (% survival)
Excerpt: (§1) The RS112 yeast DEL assay tester strain of Saccharomyces cerevisiae contains a plasmid with an internal fragment of the HIS3 gene integrated at the genomic HIS3 locus, yielding an integrative disruption of the HIS3 gene. This disruption results in two copies of the HIS3 gene, each copy having one terminal deletion. Recombination between the two his3 deletion alleles results in reversion to HIS3^+ and growth in the absence of histidine. This recombination event leads to a 6 kb DNA deletion comprising the integrated plasmid leading to deletion (DEL) events. The assay utilizing DEL events involves overnight growth of a single colony of the RS112 strain and subsequent subculture with the presence or absence of the chemical being tested for 17 hours at 30° C. under constant shaking. Yeast are then plated onto SC medium to determine the number of survivors (individual colonies are counted) and onto SC-HIS medium to score for DEL events. The traditional DEL assay is very powerful if one is testing a limited number of chemicals but becomes impractical for screening large numbers of chemicals and chemical libraries.
(§2) For 384-well plate format, 1 μl of yeast (˜100,000 cells) was pipetted into 8 microplate wells for each compound, four of which containing 70 μl SC media and four containing 70 μl SC-HIS media; each well was supplemented with 14 μl of MTS and 5 μl of compound. For 96-well plate format, the above was consistent except media, MTS, and compound volumes were 100 μl, 20 μl, and 7 μl, respectively. Control wells were treated with water in lieu of compound. The outermost columns of the 96-well plate and outer two columns of each 384-well plate were excluded from experimentation lest edge evaporative effects alter the data. Plates were incubated at 30° C. at normal atmosphere during which yeast were grown in the presence of the tested compound and 490 nm absorbance was measured 10-18 hr later using a Molecular Devices SpectraMax M5 microplate reader (Sunnyvale, Calif.).
(§3) Survival for a given compound treatment was quantified by averaging the absorbance across the four treated wells in SC media and dividing that by the average absorbance of control wells. DEL induction was quantified by dividing the absorbance of each SC-HIS well by the corresponding paired SC well. Thus for each compound done in quadruplicate, each plate contains a set of 4 different measurements of DEL induction. For each compound, ratio of the average DEL induction in treated versus control cultures was taken as the fold-increase in DEL events (HIS^+ growth). A Student's t-test was performed on the 4 measurements of DEL induction and the same measurements recorded from control wells to determine significance of the fold-increase. It should be noted that this value of fold-increase is analyzed statistically for significance and not absolute; thus two different chemicals may have the same fold-increase but varying levels of significance. In plots and tables, data from a single experiment performed in quadruplicate is presented; all experiments were repeated independently in at least 3 separate experiments in both 96 and 384-well plate formats.

[1] = system: S. cerevisiae strain RS112; experiment: well-based DEL assay (MTS colorimetric, 96/384-well): genotoxicity and cytotoxicity; conditions: for DNA deletion potential (DEL events) of solvent alone: compared to control treated yeast; for DEL events (DNA deletions) induced by crosslinking agents: well-based DEL assay
Excerpt: as §1, §2, §3

Saccharomyces cerevisiae = conditions: cited from earlier work
[2] = S. cerevisiae strain RS112 (diploid yeast cells)
[3] = concentrations as low as 1 μM (~0.3 μg/ml)

O=[N+]([O-])c1cc[n+]([O-])c2ccccc12 [4NQO, 4-nitroquinoline-1-oxide]
viability (in vitro; 0.08 μg/ml final in well): 20.3%
viability (in vitro; 0.2 μg/ml final in well): 11.7%
viability (in vitro; 1 μg/ml final in well): 13.5%

CC(C)=O [Acetone, acetone]
DEL (fold increase) ([1]; 0.4% (solvent tested alone)): 0.96 fold
DEL significance ([1]; 0.4% (solvent tested alone)): ns (ns—not significant (p > 0.05))
DNA deletion potential (DEL events) of solvent alone [1]: neither solvents generated any differentiable response

Cc1c2oc3c(C)ccc(C(=O)N[C@@H]4C(=O)N[C@H](C(C)C)C(=O)N5CCC[C@H]5C(=O)N(C)CC(=O)N(C)[C@@H](C(C)C)C(=O)O[C@@H]4C)c3nc-2c(C(=O)N[C@@H]2C(=O)N[C@H](C(C)C)C(=O)N3CCC[C@H]3C(=O)N(C)CC(=O)N(C)[C@@H](C(C)C)C(=O)O[C@@H]2C)c(N)c1=O [ActD, actinomycin D] (I: T[dV]P[Sar][NMeV] / II: T[dV]P[Sar][NMeV]; ester I:1-I:C, II:1-II:C; linker I:N-II:N via Actinocin(9to1))
Cytotoxicity significance [1]: ** (key: * (p < 0.05); ** (p < 0.01); *** (p < 0.005); ns—not significant (p > 0.05))
DEL fold-increase [1]: significant DEL fold-increase
cytotoxicity [1]: slight cytotoxicity
Cytotoxicity (% survival) ([1]; 5 μM final in well): 112.0%
DEL (fold increase) ([1]; 5 μM final in well): 0.89 fold
DEL significance ([1]; 5 μM final in well): ns (ns—not significant (p > 0.05))
Cytotoxicity (% survival) ([1]; 10 μM final in well): 110.2%
DEL (fold increase) ([1]; 10 μM final in well): 0.96 fold
DEL significance ([1]; 10 μM final in well): ns (ns—not significant (p > 0.05))
Cytotoxicity (% survival) ([1]; 20 μM final in well): 86.3%
DEL (fold increase) ([1]; 20 μM final in well): 1.26 fold
DEL significance ([1]; 20 μM final in well): ** (** (p < 0.01))

c1ccccc1 [Benzene, benzene]
viability at 0.25 mg/ml (in vitro): 96%
viability at 0.4 mg/ml (in vitro): 83.7%
Cytotoxicity significance ([1]; 0.25 mg/ml final in well): ns (ns—not significant (p > 0.05))
DEL (fold increase) ([1]; 0.25 mg/ml final in well): 1.77 fold
DEL significance ([1]; 0.25 mg/ml final in well): *** (*** (p < 0.005))
Cytotoxicity significance ([1]; 0.40 mg/ml final in well): ** (** (p < 0.01))
DEL (fold increase) ([1]; 0.40 mg/ml final in well): 2.31 fold
DEL significance ([1]; 0.40 mg/ml final in well): *** (*** (p < 0.005))
DEL induction ([1]; 0.25 and 0.40 mg/ml): significant DEL induction

CC[C@@]1(O)C(=O)OCc2c1cc1n(c2=O)Cc2cc3ccccc3nc2-1 [Camptothecin, camptothecin]
viability at 5 μM (in vitro; [2]): 86.1%
viability at 15 μM (in vitro; [2]): 93.1%
viability at 25 μM (in vitro; [2]): 95.7%
viability at 40 μM (in vitro; [2]): 85.6%
Cytotoxicity significance ([1]; 5 μM final in well): *** (*** (p < 0.005))
DEL (fold increase) ([1]; 5 μM final in well): 1.28 fold
DEL significance ([1]; 5 μM final in well): ** (** (p < 0.01))
Cytotoxicity significance ([1]; 15 μM final in well): * (* (p < 0.05))
DEL (fold increase) ([1]; 15 μM final in well): 1.53 fold
DEL significance ([1]; 15 μM final in well): *** (*** (p < 0.005))
Cytotoxicity significance ([1]; 25 μM final in well): * (* (p < 0.05))
DEL (fold increase) ([1]; 25 μM final in well): 1.57 fold
DEL significance ([1]; 25 μM final in well): *** (*** (p < 0.005))
Cytotoxicity significance ([1]; 40 μM final in well): *** (*** (p < 0.005))
DEL (fold increase) ([1]; 40 μM final in well): 1.77 fold
DEL significance ([1]; 40 μM final in well): *** (*** (p < 0.005))
cytotoxicity ([1]; each concentration 5-40 μM): various degrees of cytotoxicity
genotoxicity (growth in −HIS media) ([1]; each concentration 5-40 μM (1.7-13.9 μg/ml)): significant genotoxicity

O=NN(CCCl)C(=O)NCCCl [Carmustine, carmustine]
viability (in vitro; 10 μM final in well): 91.8%
viability (in vitro; 30 μM final in well): 29.5%
viability (in vitro; 50 μM final in well): 10.7%
cytotoxic effects [1]: more pronounced genotoxic and cytotoxic effects
DEL significance ([1]; 10 μM final in well): * (* (p < 0.05))
DEL significance ([1]; 30 μM final in well): *** (*** (p < 0.005))
DEL significance ([1]; 50 μM final in well): *** (*** (p < 0.005))
DEL events (DNA deletions) induced by crosslinking agents [1]: significant increase in DEL events

O=C(O)CCCc1ccc(N(CCCl)CCCl)cc1 [Chlorambucil, chlorambucil]
viability at 1 μM (in vitro): 82.4%
viability at 10 μM (in vitro): 35.7%
viability at 30 μM (in vitro): 20.5%
Cytotoxicity significance ([1]; 1 μM final in well): ** (** (p < 0.01))
DEL (fold increase) ([1]; 1 μM final in well): 1.18 fold
DEL significance ([1]; 1 μM final in well): * (* (p < 0.05))
Cytotoxicity significance ([1]; 10 μM final in well): *** (*** (p < 0.005))
DEL (fold increase) ([1]; 10 μM final in well): 2.37 fold
DEL significance ([1]; 10 μM final in well): *** (*** (p < 0.005))
Cytotoxicity significance ([1]; 30 μM final in well): *** (*** (p < 0.005))
DEL (fold increase) ([1]; 30 μM final in well): 3.58 fold
DEL significance ([1]; 30 μM final in well): *** (*** (p < 0.005))
cytotoxicity [1, 3]: significant genotoxicity and cytotoxicity
genotoxicity [1, 3]: significant genotoxicity and cytotoxicity
DEL events (DNA deletions) induced by crosslinking agents [1]: significant increase in DEL events

O=P1(N(CCCl)CCCl)NCCCO1 (stereo not shown) [Cyclophosphamide, cyclophosphamide monohydrate]
viability at 50 μM (in vitro): 109%
viability at 100 μM (in vitro): 104%
viability at 200 μM (in vitro): 96.2%
DEL (fold increase) ([1]; 50 μM final in well): 0.77 fold
DEL significance ([1]; 50 μM final in well): ns (ns—not significant (p > 0.05))
DEL (fold increase) ([1]; 100 μM final in well): 0.74 fold
DEL significance ([1]; 100 μM final in well): ns (ns—not significant (p > 0.05))
Cytotoxicity significance ([1]; 200 μM final in well): ns (ns—not significant (p > 0.05))
DEL (fold increase) ([1]; 200 μM final in well): 0.95 fold
DEL significance ([1]; 200 μM final in well): ns (ns—not significant (p > 0.05))
DEL fold-increase ([1]; up to 200 μM): no DEL fold-increase

C[S+](C)[O-] [DMSO, dimethyl sulfoxide]
DEL (fold increase) ([1]; 1% (solvent tested alone)): 0.96 fold
DEL significance ([1]; 1% (solvent tested alone)): ns (ns—not significant (p > 0.05))
DNA deletion potential (DEL events) of solvent alone [1]: neither solvents generated any differentiable response

CCOS(C)(=O)=O [EMS, ethyl methanesulfonate]
viability at 2 μg/ml (in vitro; [2]): 38.2%
viability at 5 μg/ml (in vitro; [2]): 8.36%
viability at 10 μg/ml (in vitro; [2]): 6.7%
Cytotoxicity significance ([1]; 2 μg/ml final in well): *** (*** (p < 0.005))
DEL (fold increase) ([1]; 2 μg/ml final in well): 1.59 fold
DEL significance ([1]; 2 μg/ml final in well): *** (*** (p < 0.005))
Cytotoxicity significance ([1]; 5 μg/ml final in well): *** (*** (p < 0.005))
DEL (fold increase) ([1]; 5 μg/ml final in well): 3.19 fold
DEL significance ([1]; 5 μg/ml final in well): *** (*** (p < 0.005))
Cytotoxicity significance ([1]; 10 μg/ml final in well): *** (*** (p < 0.005))
DEL (fold increase) ([1]; 10 μg/ml final in well): 2.65 fold
DEL significance ([1]; 10 μg/ml final in well): *** (*** (p < 0.005))
growth in +13 media (cytotoxicity) ([1]; 2, 5 and 10 μg/ml): diminished growth in +13 media
growth in −HIS media (genotoxicity) ([1]; 2, 5 and 10 μg/ml): increased growth in −HIS media

COS(C)(=O)=O [MMS, methylmethane sulfonate]
viability at 10 nM (in vitro; [2]): 81.2%
viability at 100 nM (in vitro; [2]): 74.8%
viability at 500 nM (in vitro; [2]): 38.6%
viability at 1000 nM (in vitro; [2]): 20.3%
Cytotoxicity significance ([1]; 10 nM final in well): *** (*** (p < 0.005))
DEL (fold increase) ([1]; 10 nM final in well): 1.54 fold
DEL significance ([1]; 10 nM final in well): ** (** (p < 0.01))
Cytotoxicity significance ([1]; 100 nM final in well): *** (*** (p < 0.005))
DEL (fold increase) ([1]; 100 nM final in well): 1.68 fold
DEL significance ([1]; 100 nM final in well): *** (*** (p < 0.005))
Cytotoxicity significance ([1]; 500 nM final in well): *** (*** (p < 0.005))
DEL (fold increase) ([1]; 500 nM final in well): 2.16 fold
DEL significance ([1]; 500 nM final in well): *** (*** (p < 0.005))
Cytotoxicity significance ([1]; 1000 nM final in well): *** (*** (p < 0.005))
DEL (fold increase) ([1]; 1000 nM final in well): 3.09 fold
DEL significance ([1]; 1000 nM final in well): *** (*** (p < 0.005))
cytotoxicity ([1]; each concentration between 10-1000 nM): increasingly significantly cytotoxic
DEL fold-increase ([1]; lowest dose tested of 10 nM (0.0011 μg/ml)): significant increase in DEL fold-increase

CC(=O)N[C@@H](CS)C(=O)O [NAC, N-acetylamine]
protection against HNO induced DNA deletions (Saccharomyces cerevisiae): protected
